Measured values reported in PubChem BioAssay AID256 (DTP/NCI, 2004).
Several values for one entry are separate records, joined by “and”; a condition that tells them apart may be missing. Equal entries are not always repeated. Toxic doses and inconclusive results are not listed.

System: CD2F1 mice, L1210 leukemia ip, survival T/C
Test: NCI In Vivo Anticancer Drug Screen. Data for tumor model L1210 Leukemia (intraperitoneal) in CD2F1 (CDF1) mice
Conditions: higher = longer survival
Outline: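 Activity against a transplanted murine tumor was judged by comparing the compound group with a vehicle group. The outcome in the treated animals was divided by that in the controls.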

[1] = endpoint: mean survival time, dose: 100.0 mg/kg/injection, schedule: Q04DX003 (ip), vehicle: saline
[2] = endpoint: mean survival time, dose: 200.0 mg/kg/injection, schedule: Q04DX003 (ip), vehicle: saline
[3] = endpoint: mean survival time, dose: 400.0 mg/kg/injection, schedule: Q04DX003 (ip), vehicle: saline
[4] = endpoint: mean survival time, dose: 100.0 mg/kg/injection, schedule: Q04DX003 (ip), vehicle: saline with Tween-80
[5] = endpoint: mean survival time, dose: 200.0 mg/kg/injection, schedule: Q04DX003 (ip), vehicle: saline with Tween-80
[6] = endpoint: mean survival time, dose: 400.0 mg/kg/injection, schedule: Q04DX003 (ip), vehicle: saline with Tween-80
[7] = endpoint: mean survival time, dose: 100.0 mg/kg/injection, schedule: Q01DX001 (ip), vehicle: saline
[8] = endpoint: mean survival time, dose: 200.0 mg/kg/injection, schedule: Q01DX001 (ip), vehicle: saline
[9] = endpoint: mean survival time, dose: 400.0 mg/kg/injection, schedule: Q01DX001 (ip), vehicle: saline
[10] = endpoint: mean survival time, dose: 50.0 mg/kg/injection, schedule: Q01DX009 (ip), vehicle: saline with Tween-80
[11] = endpoint: mean survival time, dose: 100.0 mg/kg/injection, schedule: Q01DX009 (ip), vehicle: saline with Tween-80
[12] = endpoint: mean survival time, dose: 200.0 mg/kg/injection, schedule: Q01DX009 (ip), vehicle: saline with Tween-80
[13] = endpoint: mean survival time, dose: 5.0 mg/kg/injection, schedule: Q01DX009 (ip), vehicle: saline with Tween-80

Nc1ccc2nsnc2c1
T/C (endpoint: mean survival time, dose: 50.0 mg/kg/injection, schedule: Q01DX001 (ip), vehicle: Klucel (hydroxypropylcellulose) (HPC)): 105 % of control
T/C (endpoint: mean survival time, dose: 100.0 mg/kg/injection, schedule: Q01DX001 (ip), vehicle: Klucel (hydroxypropylcellulose) (HPC)): 90 % of control
T/C (endpoint: mean survival time, dose: 200.0 mg/kg/injection, schedule: Q01DX001 (ip), vehicle: Klucel (hydroxypropylcellulose) (HPC)): 103 % of control

C1Cn2nnnc2N1
T/C [1]: 103 % of control
T/C [2]: 103 % of control
T/C [3]: 94 % of control

CC(=O)On1nnc2ccccc2c1=O
T/C (endpoint: mean survival time, dose: 12.5 mg/kg/injection, schedule: Q01DX001 (ip), vehicle: distilled water + Tween-80): 101 % of control
T/C (endpoint: mean survival time, dose: 25.0 mg/kg/injection, schedule: Q01DX001 (ip), vehicle: distilled water + Tween-80): 100 % of control
T/C (endpoint: mean survival time, dose: 50.0 mg/kg/injection, schedule: Q01DX001 (ip), vehicle: distilled water + Tween-80): 95 % of control
T/C (endpoint: mean survival time, dose: 100.0 mg/kg/injection, schedule: Q01DX001 (ip), vehicle: distilled water + Tween-80): 90 % of control

Cn1nnc2c(C(N)=O)ncn2c1=O
T/C (endpoint: median survival time, dose: 6.25 mg/kg/injection, schedule: Q01DX009 (ip), vehicle: saline with Tween-80): 111 % of control
T/C (endpoint: median survival time, dose: 12.5 mg/kg/injection, schedule: Q01DX009 (ip), vehicle: saline with Tween-80): 122 % of control
T/C (endpoint: median survival time, dose: 25.0 mg/kg/injection, schedule: Q01DX009 (ip), vehicle: saline with Tween-80): 151 % of control
T/C (endpoint: median survival time, dose: 50.0 mg/kg/injection, schedule: Q01DX009 (ip), vehicle: saline with Tween-80): 159 % of control and 168 % of control
T/C (endpoint: median survival time, dose: 100.0 mg/kg/injection, schedule: Q01DX009 (ip), vehicle: saline with Tween-80): 182 % of control and 193 % of control
T/C (endpoint: median survival time, dose: 200.0 mg/kg/injection, schedule: Q01DX009 (ip), vehicle: saline with Tween-80): 121 % of control and 93 % of control

Cc1ncc2cnccn12
T/C (endpoint: mean survival time, dose: 50.0 mg/kg/injection, schedule: Q01DX009 (ip), vehicle: saline sonified): 101 % of control
T/C (endpoint: mean survival time, dose: 100.0 mg/kg/injection, schedule: Q01DX009 (ip), vehicle: saline sonified): 104 % of control
T/C [1]: 97 % of control
T/C [2]: 101 % of control

CC(=O)C1CCOC1=O (stereo not given)
T/C [1]: 96 % of control
T/C [2]: 104 % of control
T/C [3]: 98 % of control

CN(N=C(C1CC1)C1CC1)c1ccccc1
T/C (endpoint: mean survival time, dose: 100.0 mg/kg/injection, schedule: Q01DX001 (ip), vehicle: saline with Tween-80): 100 % of control
T/C (endpoint: mean survival time, dose: 200.0 mg/kg/injection, schedule: Q01DX001 (ip), vehicle: saline with Tween-80): 107 % of control
T/C (endpoint: mean survival time, dose: 400.0 mg/kg/injection, schedule: Q01DX001 (ip), vehicle: saline with Tween-80): 105 % of control

CCOC(=O)CN/N=C(\N)CSS(=O)(=O)O
T/C [4]: 97 % of control
T/C [5]: 97 % of control
T/C [6]: 100 % of control

CCCCOc1c(OCCCC)c(=O)c1=O
T/C [7]: 108 % of control
T/C (endpoint: mean survival time, dose: 178.0 mg/kg/injection, schedule: Q01DX001 (ip), vehicle: saline): 102 % of control
T/C [8]: 108 % of control
T/C (endpoint: mean survival time, dose: 267.0 mg/kg/injection, schedule: Q01DX001 (ip), vehicle: saline): 96 % of control
T/C [9]: 106 % of control
T/C (endpoint: mean survival time, dose: 600.0 mg/kg/injection, schedule: Q01DX001 (ip), vehicle: saline): 98 % of control

CCCCN1C(=O)C(=O)N(c2ccc(NC(C)=O)cc2)C1=O
T/C [10]: 93 % of control
T/C [11]: 89 % of control
T/C [12]: 89 % of control

O=CN/N=C/c1ccc2c(c1)CCC2
T/C [4]: 107 % of control
T/C [5]: 96 % of control
T/C [6]: 96 % of control

COc1ccc(N2C(N)=NC(N)=NC2(C)C)cc1
T/C (endpoint: mean survival time, dose: 25.0 mg/kg/injection, schedule: Q04DX002 (ip), vehicle: saline): 106 % of control
T/C (endpoint: mean survival time, dose: 50.0 mg/kg/injection, schedule: Q04DX002 (ip), vehicle: saline): 100 % of control

CCC(=O)c1ccc(OC(C)=O)c(OC(C)=O)c1
T/C (endpoint: mean survival time, dose: 100.0 mg/kg/injection, schedule: Q01DX009 (ip), vehicle: saline): 96 % of control
T/C (endpoint: mean survival time, dose: 200.0 mg/kg/injection, schedule: Q01DX009 (ip), vehicle: saline): 96 % of control
T/C (endpoint: mean survival time, dose: 400.0 mg/kg/injection, schedule: Q01DX009 (ip), vehicle: saline): 96 % of control

NCc1c(Cl)c(Cl)c(Cl)c(CN)c1Cl
T/C (endpoint: mean survival time, dose: 50.0 mg/kg/injection, schedule: Q04DX003 (ip), vehicle: saline with Tween-80): 100 % of control
T/C [4]: 100 % of control
T/C [5]: 98 % of control

COc1cc(Br)c(CCNC(=O)Cc2cc(OC)c(OC)cc2Br)cc1OC
T/C [4]: 91 % of control
T/C [5]: 86 % of control

O=C(O)C12CC3CC(CC(C3)C1)C2
T/C [4]: 103 % of control
T/C [5]: 105 % of control
T/C [6]: 102 % of control

Cn1c(CC#N)c(C[N+](C)(C)C)c2ccccc21
T/C (endpoint: mean survival time, dose: 2.5 mg/kg/injection, schedule: Q01DX009 (ip), vehicle: saline with Tween-80): 97 % of control
T/C (endpoint: mean survival time, dose: 5.0 mg/kg/injection, schedule: Q01DX001 (ip), vehicle: saline with Tween-80): 102 % of control
T/C [13]: 97 % of control
T/C (endpoint: mean survival time, dose: 10.0 mg/kg/injection, schedule: Q01DX001 (ip), vehicle: saline with Tween-80): 96 % of control

O=c1oc2c(ccc3ccccc32)c(O)c1-c1cccc2ccccc12
T/C [10]: 103 % of control
T/C [11]: 100 % of control
T/C [12]: 93 % of control

COc1cccc(CCNC(=O)CC#N)c1
T/C [11]: 97 % of control
T/C [12]: 98 % of control
T/C (endpoint: mean survival time, dose: 400.0 mg/kg/injection, schedule: Q01DX009 (ip), vehicle: saline with Tween-80): 101 % of control

CCN(CC)Cc1cccc(Nc2cc(C)nc(/N=C(\N)Nc3ccc(Cl)c(Cl)c3)n2)c1
T/C (endpoint: mean survival time, dose: 9.5 mg/kg/injection, schedule: Q01DX001 (ip), vehicle: other): 102 % of control
T/C (endpoint: mean survival time, dose: 19.0 mg/kg/injection, schedule: Q01DX001 (ip), vehicle: other): 96 % of control
T/C (endpoint: mean survival time, dose: 38.0 mg/kg/injection, schedule: Q01DX001 (ip), vehicle: other): 95 % of control

CC(=O)c1cno[n+]1[O-]
T/C [13]: 97 % of control
T/C (endpoint: mean survival time, dose: 10.0 mg/kg/injection, schedule: Q01DX009 (ip), vehicle: saline with Tween-80): 113 % of control

CN(C)CCOC(=O)COc1ccc(Cl)cc1
T/C [7]: 97 % of control
T/C [8]: 100 % of control
T/C [9]: 94 % of control

CC1=C(/C=C/C(C)=C/C=C/C(C)=C/C=O)C(C)(C)CCC1
T/C (endpoint: median survival time, dose: 6.25 mg/kg/injection, schedule: Q01DX005 (ip), vehicle: saline with Tween-80): 105 % of control
T/C (endpoint: median survival time, dose: 12.5 mg/kg/injection, schedule: Q01DX005 (ip), vehicle: saline with Tween-80): 100 % of control
T/C (endpoint: median survival time, dose: 25.0 mg/kg/injection, schedule: Q01DX005 (ip), vehicle: saline with Tween-80): 97 % of control and 103 % of control
T/C (endpoint: median survival time, dose: 50.0 mg/kg/injection, schedule: Q01DX005 (ip), vehicle: saline with Tween-80): 100 % of control and 101 % of control
T/C (endpoint: median survival time, dose: 100.0 mg/kg/injection, schedule: Q01DX005 (ip), vehicle: saline with Tween-80): 104 % of control

COc1ccc(CN2CCCNCC2)cc1
T/C (endpoint: mean survival time, dose: 12.5 mg/kg/injection, schedule: Q01DX005 (ip), vehicle: water): 95 % of control
T/C (endpoint: mean survival time, dose: 25.0 mg/kg/injection, schedule: Q01DX005 (ip), vehicle: water): 95 % of control
T/C (endpoint: mean survival time, dose: 50.0 mg/kg/injection, schedule: Q01DX005 (ip), vehicle: water): 97 % of control
T/C (endpoint: mean survival time, dose: 100.0 mg/kg/injection, schedule: Q01DX005 (ip), vehicle: water): 101 % of control
T/C (endpoint: mean survival time, dose: 200.0 mg/kg/injection, schedule: Q01DX005 (ip), vehicle: water): 95 % of control

CCOC(=O)/C(C#N)=C\c1cccs1
T/C (endpoint: mean survival time, dose: 25.0 mg/kg/injection, schedule: Q04DX003 (ip), vehicle: Klucel (hydroxypropylcellulose) (HPC)): 96 % of control
T/C (endpoint: mean survival time, dose: 50.0 mg/kg/injection, schedule: Q04DX003 (ip), vehicle: Klucel (hydroxypropylcellulose) (HPC)): 96 % of control
T/C (endpoint: mean survival time, dose: 100.0 mg/kg/injection, schedule: Q04DX003 (ip), vehicle: Klucel (hydroxypropylcellulose) (HPC)): 107 % of control
